Where no end group is shown, it is not given here. [ ]: non-standard residue; d: D form. Cit = NC(=O)NCCC[C@H](N)C(=O)O
Experiments:
[1] = test system: anti-citrullinated protein autoantibodies (ACPAs); assay: ELISA of citrullinated/native fibrin peptide pairs with serum mixtures A and B and control mixture (delta OD); format: binding, human; details: mean of two determinations
Experimental: Each pair of peptides (citrullinated and noncitrullinated) was assayed by ELISA with a mixture, in equal parts, of 10 sera having no ACPAs (control mixture) and with the 2 mixtures A and B described in Example 1.
Each pair of peptides (native and citrullinated form) was tested on the same plate and a pair of control peptides—citrullinated “filaggrin” peptide cfc6 and its corresponding native peptide cf0 (Schellekens G A, 1998, mentioned above)—was included in each experiment, which made it possible to calculate an inter-assay coefficient of variation and to perform corrections.
All the incubations were carried out for 1 h at 4° C. and were followed by washing in PBS-0.1% Tween. The peroxidase activity was visualized with a solution of ortho-phenylenediamine (2 mg/ml—Sigma) in hydrogen peroxide (0.03%—Sigma). The reaction was stopped after 5 minutes by adding 4M sulfuric acid, and the optical density (OD) at 492 nm was measured by virtue of an automatic spectrophotometer (Multiskan, Thermo Labsystems).
The specific reactivity of the mixtures of sera with regard to the citrullinated peptides corresponded to the difference between the OD obtained with the citrullinated peptide and that obtained with the corresponding native peptide (delta OD). The results correspond to the mean of two determinations. Any citrullinated peptide making it possible to obtain a delta OD of greater than 0.250 for at least one of the two mixtures A and B after coating in at least one of the three buffers, was considered to be reactive.

[2] = test system: anti-citrullinated protein autoantibodies (ACPAs); assay: ELISA of reactive citrullinated fibrin peptides with the 20 individual sera of mixtures A and B; format: binding, human; details: for Number of positive sera: sera with delta OD not <0.25 out of sera tested (20, or 10 of mixture A only); for delta OD: best coating buffer per peptide
Experimental: The 14 peptides carrying the most reactive epitopes (delta OD≧0.5 for one or other of the mixtures of serum (A and B) with at least one of the three coating buffers) were tested independently with the 20 sera constituting the mixtures A and B, in order to evaluate the reactivity profile of each of these peptides. The tests were carried out by ELISA under the same conditions as in Example 2 above, with the exception that, for each pair of peptides, the coating buffer selected was that that had made it possible to obtain the strongest reactivity with respect to this peptide during the screening (the buffer for which the sum of the delta ODs obtained respectively for the serum mixtures A and B was at a maximum). […] Thus, for each serum, the dilution that made it possible to obtain an OD of 1 by ELISA on deiminated fibrinogen was selected (Nogueira L, 2002, mentioned above). The dilutions ranged from 1/20 to 1/2700.

[3] = Mixture A of sera 1/50, coating buffer PBS pH 7.4
[4] = Mixture A of sera 1/50, coating buffer acetate pH 5.0
[5] = Mixture A of sera 1/50, coating buffer carbonate pH 9.0
[6] = Mixture B of sera 1/50, coating buffer PBS pH 7.4
[7] = Mixture B of sera 1/50, coating buffer acetate pH 5.0
[8] = Mixture B of sera 1/50, coating buffer carbonate pH 9.0

Substance	delta OD (citrullinated minus native peptide, 492 nm) [1, 3]	delta OD (citrullinated minus native peptide, 492 nm) [1, 4]	delta OD (citrullinated minus native peptide, 492 nm) [1, 5]	delta OD (citrullinated minus native peptide, 492 nm) [1, 6]	delta OD (citrullinated minus native peptide, 492 nm) [1, 7]	delta OD (citrullinated minus native peptide, 492 nm) [1, 8]	Number of positive sera [2]	delta OD ([2]; serum 97.0311, dilution 1/200)	delta OD ([2]; serum 97.0459, dilution 1/60)	delta OD ([2]; serum 97.0794, dilution 1/50)	delta OD ([2]; serum 97.1474, dilution 1/20)	also measured
α36-50Cit38,42: citrullinated synthetic peptide, fibrin α-chain residues 36-50; fits SEQ ID NO: 2 GPX1VVEX2HQSACKDS (GP[Cit]VVE[Cit]HQSACKDS)	2.69	4.00	3.43	2.65	4.27	2.64	12/20	0.71	3.55	3.43	1.93	delta OD ([2]; serum 95.0256, dilution 1/35): 2.35; delta OD ([2]; serum 97.0323, dilution 1/120): 1.87; delta OD ([2]; serum 97.0388, dilution 1/50): 3.32; delta OD ([2]; serum 97.0524, dilution 1/200): 3.39; delta OD ([2]; serum 97.0530, dilution 1/50): 2.97; delta OD ([2]; serum 97.1436, dilution 1/150): 3.30; delta OD ([2]; serum 97.1715, dilution 1/300): 3.50; delta OD ([2]; serum 97.1795, dilution 1/50): 2.29
α171-185Cit178,181: citrullinated synthetic peptide, fibrin α-chain residues 171-185; fits SEQ ID NO: 4 VDIDIKIX1SCX2GSCS (VDIDIKI[Cit]SC[Cit]GSCS; cysteine pairing not given here)	0.29	0.15	0.75	0.21	0.08	0.47	9/20	1.95	0.29	2.09	1.08	delta OD ([2]; serum 97.0468, dilution 1/700): 0.42; delta OD ([2]; serum 97.0524, dilution 1/200): 0.59; delta OD ([2]; serum 97.0907, dilution 1/300): 0.44; delta OD ([2]; serum 97.1548, dilution 1/60): 0.71; delta OD ([2]; serum 97.1795, dilution 1/50): 0.57
α183-197Cit186,190: citrullinated synthetic peptide, fibrin α-chain residues 183-197 (second series) (SCS[Cit]ALA[Cit]EVDLKDY)	1.68	0.41	1.36	0.15	0.01	0.07	3/10	0.87	3.21	–	–	delta OD ([2]; serum 97.0506, dilution 1/75): 0.85
α246-260Cit258: citrullinated synthetic peptide, fibrin α-chain residues 246-260 (PEWKALTDMPQM[Cit]ME)	0.00	0.04	0.00	0.25	0.27	0.33	–	–	–	–	–	–
α259-273Cit263,271: citrullinated synthetic peptide, fibrin α-chain residues 259-273 (second series) (MELE[Cit]PGGNEIT[Cit]GG)	0.60	0.14	0.12	0.69	0.21	0.20	13/20	0.29	–	–	0.39	delta OD ([2]; serum 97.0468, dilution 1/700): 0.32
α366-380Cit367: citrullinated synthetic peptide, fibrin α-chain residues 366-380 (E[Cit]GSAGHWTSESSVS)	0.37	0.28	0.26	0.04	0.00	0.08	–	–	–	–	–	–
α396-410Cit404: citrullinated synthetic peptide, fibrin α-chain residues 396-410 (DSPGSGNA[Cit]PNNPDW)	0.02	0.04	0.43	0.17	0.15	0.20	–	–	–	–	–	–
α411-425Cit425: citrullinated synthetic peptide, fibrin α-chain residues 411-425 (GTFEEVSGNVSPGT[Cit])	0.16	0.09	0.56	0.66	0.38	0.43	1/20	–	–	–	–	delta OD ([2]; serum 97.1210, dilution 1/300): 0.84
α501-515Cit510,512: citrullinated synthetic peptide, fibrin α-chain residues 501-515; fits SEQ ID NO: 3 SGIGTLDGFX1HX2HPD (SGIGTLDGF[Cit]H[Cit]HPD)	0.92	0.16	0.15	2.60	0.72	0.79	9/20	–	–	3.30	–	delta OD ([2]; serum 95.0256, dilution 1/35): 2.37; delta OD ([2]; serum 97.0323, dilution 1/120): 3.23; delta OD ([2]; serum 97.0388, dilution 1/50): 2.88; delta OD ([2]; serum 97.0506, dilution 1/75): 0.44; delta OD ([2]; serum 97.0524, dilution 1/200): 2.85; delta OD ([2]; serum 97.0530, dilution 1/50): 0.69; delta OD ([2]; serum 97.1436, dilution 1/150): 2.80; delta OD ([2]; serum 97.1715, dilution 1/300): 1.79
α546-560Cit547: citrullinated synthetic peptide, fibrin α-chain residues 546-560 (S[Cit]GSESGIFTNTKES)	0.74	0.38	0.33	0.15	0.05	0.16	2/10	–	–	–	–	delta OD ([2]; serum 97.0530, dilution 1/50): 0.44; delta OD ([2]; serum 97.0796, dilution 1/500): 1.18
α561-575Cit573: citrullinated synthetic peptide, fibrin α-chain residues 561-575 (SSHHPGIAEFPS[Cit]GK)	0.30	0.05	0.01	0.52	0.14	0.17	5/20	0.30	0.38	1.95	0.71	delta OD ([2]; serum 97.1548, dilution 1/60): 0.53
β420-434Cit421: citrullinated synthetic peptide, fibrin β-chain residues 420-434 (P[Cit]KQCSKEDGGGWWY)	0.48	0.36	0.44	0.00	0.00	0.00	–	–	–	–	–	–

— patent US9249208B2, “Citrulline peptides derived from fibrin and recognized by rheumatoid arthritis specific autoantibodies, and the use thereof” (Biomerieux, priority 2004, dated 2016)
